Laboratory results published in article PMC3989846 (Malaria Journal, 2014).

Key:
[1] = tested on: P. berghei ANKA blood stage parasitaemia; assay: Blood stage infection by flow cytometry (FCM) and causal prophylaxis outcome after sporozoite challenge; type: in vivo, Plasmodium berghei; settings: for Effects: CP = causal prophylaxis; for Blood Infection by FCM: infected/challenged mice
Procedure: Novel and control anti-malarials were administered orally on days -1, 0, and 1 with respect to sporozoite inoculation. […] Additionally, blood stage infections were measured by flow cytometry. Positive and negative controls were used for the IVIS calibration in each test.
(§1) Causal prophylactic effects and delay in onset of parasitaemia in animals treated with TQ and PQ (Figure 1) were assessed in these experiments, which included a positive control, 4-methyl-PQ. All dosing was conducted based on the body weight at the time of preparation of the dosing solution. […] Each animal received 0.1 - 0.2 ml of the oral solutions, delivered via an intragastric feeder (18-gauge) to the designated recipient. Stock solutions of test compounds were prepared fresh daily by grinding the needed amount of drug in cold (4°C) 0.5% (w/v) hydroxyethyl cellulose and 0.2% (v/v) Tween-80 (0.5% HECT) and diluting the resulting solution at variable concentrations. C57BL/6 albino mice were challenged intravenously with 50,000 luciferase-expressing P. berghei sporozoites extracted from the salivary glands of heavily infected An. stephensi mosquitoes. […] At day 5–30 after infection, the same mice were analysed for blood stage infection by determination of the course of parasitaemia of tail blood by flow cytometry using an FC500 flow cytometer (Beckman-Coulter Co. CA).
At day 5–30 after infection, the same mice were analysed for blood stage infections by quantitation of malaria parasites by flow cytometry (FCM). All FCM analyses were carried out with a FC500 MPL flow cytometer (Beckman Coulter, Fullerton, CA), which conducts five-colour analysis from either single or dual laser excitation. Infected erythrocytes, uninfected erythrocytes, and leukocytes were gated on logarithmic forward/side dot plots. Cells were analysed at an average rate of 2,000-3,000 erythrocytes/s. Filters were placed before the green (FL-1) and red (FL-2) photomultiplier tubes (PMTs) such that the green PMT registered fluorescence emission between 520 and 555 nm, and the red PMT measured emission greater than 580 nm.
A drop of blood (3 μL) from the mouse tail was collected directly into 0.3 ml of 1% heparinized isotonic buffer (PBS saline). In this study, 1 ml 0.04% of glutaraldehyde was used for fixation and the samples were then incubated at 4°C for 60 minutes. The cells were centrifuged at 450 × g for 5 min. […] After centrifugation, the permeabilized cells were re-suspended in 0.5 ml of RNAse at 1 mg/ml concentrations and incubated for at least 2 hours at 37°C to ensure complete digestion of reticulocytes. Plasmodium berghei infection in mice results in anaemia which then results in reticulocytosis. Therefore, high RNAse concentrations for digesting large amounts of reticulocytes RNA were required for assessment of parasitaemia in this mouse model.
In the in vivo imaging experiments, causal prophylaxis activity, sporontocidal activity, parasite clearance, causal cure, delays in patency, and time to recrudescence were calculated as described previously. The minimum curative dose (MCD100) in 100% animals was defined as the lowest dose, which cured all animals (>5 animals) in a group at any time during the first 30 days of the follow-up period. […] Means and standard deviations of photon measurement were calculated. Blood stage infection was defined as two positive blood samples by flow cytometry, taken daily apart. The negative blood samples were monitored until day 15 after inoculation. Coefficients of variation were calculated as a percentage by dividing the standard deviation by the mean value.

[2] = tested on: luciferase-expressing P. berghei ANKA sporozoites; assay: Real time in vivo imaging (IVIS) of liver-stage luminescence in sporozoite-infected mice; set-up: species or system Plasmodium berghei; settings: for Suppression rate (%) IVIS 24 h: 24 h post infection; for Suppression rate (%) IVIS 48 h: 48 h post infection; for Suppression rate (%) IVIS 72 h: 72 h post infection
From the text: Luciferase-expressing P. berghei ANKA sporozoites were obtained from laboratory-reared female An. stephensi mosquitoes from the Department of Mosquito Biology, WRAIR. […] Salivary glands were extracted from malaria-infected mosquitoes and kept on ice in RPMI medium with 1% mouse serum. Sporozoites will be recovered by the method of Ozaki, and quantitated using a haemocytometer. Sporozoites isolated from the same batch of mosquitoes will be inoculated into C57BL/6 albino mice on the same day to control for biological variability in sporozoite preparations. Each C57BL/6 mouse will be inoculated intravenously in the tail vein with approximately 50,000 sporozoites suspended in 0.1 mL volume on day 0. To ensure that inoculated sporozoites are viable following the isolation procedure, they will be stained with a vital dye containing fluorescein diacetate (50 mg/mL in acetone) and ethidium bromide (20 μg/mL in phosphate-buffered saline; Sigma Chemical Co., St. Louis, Mo.) and counted in a haemocytometer.
[…] […] Additionally, blood stage infections were measured by flow cytometry. Positive and negative controls were used for the IVIS calibration in each test.
as §1
In vivo imaging studies of bioluminescence activity from luciferase expressing P. berghei infected mice were performed using a Perkin Elmer IVIS Spectrum (Hanover, MD). […] Three minutes post luciferin administration the mice were anesthetized with inhaled isoflurane. The mice were then positioned ventral side up in the IVIS on a 37°C platform. The mice continue to receive isoflurane through nose cone delivery. The camera exposure times utilized were 1 and 5 minutes for the 24, 48, and 72 hour time points with f-stop = 1 and large binning setting. Quantitative analysis of bioluminescence emitted from whole bodies or region of intensity (ROI) were determined by measuring the luminescence signal intensity in photons/second using the ROI settings of the Living Image® 3.0 software. The ROI, which measurements were expressed in total flux of photons, was set to measure the abdominal area at the location of the liver from whole body imaging.
In the in vivo imaging experiments, causal prophylaxis activity, sporontocidal activity, parasite clearance, causal cure, delays in patency, and time to recrudescence were calculated as described previously. The minimum curative dose (MCD100) in 100% animals was defined as the lowest dose, which cured all animals (>5 animals) in a group at any time during the first 30 days of the follow-up period.

[3] = 5 mg/kg oral, 3 days (-1, 0, 1)
[4] = 10 mg/kg oral, 3 days (-1, 0, 1)
[5] = 15 mg/kg oral, 3 days (-1, 0, 1)
[6] = 20 mg/kg oral, 3 days (-1, 0, 1)
[7] = 25 mg/kg oral, 3 days (-1, 0, 1)
[8] = 25 mg/kg single oral dose on day 0
[9] = 25 mg/kg single oral dose on day -1

COc1cc(NC(C)CCCN)c2ncccc2c1 (stereo not drawn) [Primaquine, primaquine]
Effects [1, 3]: Suppression | Blood Infection by FCM [1, 3]: 5/5 | Effects [1, 4]: Partial CP | Blood Infection by FCM [1, 4]: 5/10 | Effects [1, 5]: Partial CP | Blood Infection by FCM [1, 5]: 4/20 | Effects [1, 6]: Partial CP | Blood Infection by FCM [1, 6]: 1/10 | Delay in patency (days after onset in controls) ([1]; 20 mg/kg oral, 3 days (-1, 0, 1), per infected mouse): 6 days | Effects [1, 7]: Full CP | Blood Infection by FCM [1, 7]: 0/10 | Effects [1, 8]: Suppression | Blood Infection by FCM [1, 8]: 5/5 | Effects [1, 9]: Suppression | Blood Infection by FCM [1, 9]: 5/5 | blood stage parasitaemia 5–30 days after infection ([1]; single oral dose 25 mg/kg): severe parasitaemia | Suppression rate (%) IVIS 24 h [2, 3]: 82.4% | Suppression rate (%) IVIS 48 h [2, 3]: 77.5% | Suppression rate (%) IVIS 72 h [2, 3]: 89.4% | Suppression rate (%) IVIS 24 h [2, 4]: 100% | Suppression rate (%) IVIS 48 h [2, 4]: 97.6% | Suppression rate (%) IVIS 72 h [2, 4]: 100% | low level of luminescence ([2]; 10 mg/kg x 3 days, 5 of 10 animals, 48 hours): 0.66 × 10^5 photons/sec | Suppression rate (%) IVIS 24 h [2, 5]: 100% | Suppression rate (%) IVIS 48 h [2, 5]: 100% | Suppression rate (%) IVIS 72 h [2, 5]: 100% | Suppression rate (%) IVIS 24 h [2, 6]: 100% | Suppression rate (%) IVIS 48 h [2, 6]: 100% | Suppression rate (%) IVIS 72 h [2, 6]: 100% | Suppression rate (%) IVIS 24 h [2, 7]: 100% | Suppression rate (%) IVIS 48 h [2, 7]: 100% | Suppression rate (%) IVIS 72 h [2, 7]: 100% | Suppression rate (%) IVIS 24 h [2, 8]: 11.2% | Suppression rate (%) IVIS 48 h [2, 8]: 0% | Suppression rate (%) IVIS 72 h [2, 8]: 0% | Suppression rate (%) IVIS 24 h [2, 9]: 45.7% | Suppression rate (%) IVIS 48 h [2, 9]: 0% | Suppression rate (%) IVIS 72 h [2, 9]: 0% | liver luminescence after 24 hours ([2]; single oral dose 25 mg/kg): high levels of luminescence and no suppression of signal
